# Assay results from patent US11498939B2, “Glucose polymers for peritoneal dialysis” (ROQUETTE FRERES, priority 2016, dated 2022).
# Assay: Effects of the sterilization on GDP production
# Format: physicochemical
# Conditions: 4% solution in deionized water; sterilization at 121° C. for 15 minutes
# Experimental: In this example, the inventors studied the influence of sterilization on the production of GDPs, namely 5-hydroxymethyl furaldehyde (5-HMF), furaldehyde and 3,4-dideoxyglucosone-3-ene (3,4-DGE), of solutions using various glucose polymers or glucose.
# 20 ml solutions containing 4% of each of the substances to be tested were prepared in deionized water. The GDP content was measured after sterilization at 121° C. for 15 minutes.
# The 5-HMF and furaldehyde content was determined by liquid chromatography using 5-HMF standards (Merck—Ref. 8.206.78.001) or furaldehyde standards for the calibration respectively), and detection by UV spectrophotometry at 280 nm. For the chromatography, a column with a particle size of 9 μm, 8% crosslinking, an internal diameter of 7.8 mm and a length of 300 mm (HPX 87H column—Biorad—Ref. 125.0140) was used. The conditions were the following: eluent 5 mN H2SO4 […], flow rate of 0.8 ml/min.
# The 3,4-DGE content was determined by liquid chromatography (using pyrazinecarboxamide (Sigma—Ref. P7136) for the calibration) and detection by UV spectrophotometry at 230 nm. For the chromatography, a column with a particle size of 5 μm, a pore size of 120 Å size, an internal diameter of 4.6 mm and a length of 15 cm (Supelcosil LC-18—Supelco—Ref. 58230) was used. The conditions were the following: elution solvent H2O/MeOH, flow rate of 1.0 ml/min.
compound,measurement,value
"OC[C@H]1OC(O)[C@H](O)[C@@H](O)[C@@H]1O (stereo partly shown) [glucose, anhydrous dextrose]","GDP content after sterilization (5-HMF, furaldehyde, 3,4-DGE)",much higher than that of the glucose polymers
